In the NIST ThermoML archive (doi:10.1021/je400415r):

Test: mn = molality of the nth substance listed, in mol/kg
Details: 101 kPa, Liquid; for speed of sound: Pulse-echo method; for mass density: Vibrating tube method

NCC(=O)O [2-aminoacetic acid] + O
Details	mass density, 288.15 K [kg/m3]	mass density, 298.15 K [kg/m3]	mass density, 308.15 K [kg/m3]	mass density, 318.15 K [kg/m3]	speed of sound, 288.15 K [m/s]	speed of sound, 298.15 K [m/s]	speed of sound, 308.15 K [m/s]	speed of sound, 318.15 K [m/s]
m1 = 0.04998	1000.77	998.679	995.632	991.792	1469.2	1499.4	1522.2	1538.6
m1 = 0.1399	1003.74	1001.58	998.484	994.608	1474.3	1504.2	1526.8	1543
m1 = 0.2276	1006.6	1004.38	1001.24	997.323	1479.2	1508.8	1531.1	1547.1
m1 = 0.4056	1012.27	1009.94	1006.71	1002.72	1488.9	1517.9	1539.7	1555.4
m1 = 0.5835	1017.82	1015.36	1012.04	1007.99	1498.4	1526.8	1548.2	1563.5
m1 = 0.7602	1023.19	1020.62	1017.22	1013.1	1507.6	1535.4	1556.3	1571.3
m1 = 0.9386	1028.48	1025.81	1022.32	1018.13	1516.7	1543.9	1564.4	1579
m1 = 1.117	1033.62	1030.85	1027.28	1023.04	1525.5	1552.2	1572.2	1586.4
m1 = 1.296	1038.69	1035.81	1032.17	1027.84	1534.1	1560.3	1579.8	1593.7

CCC(N)C(=O)O (stereo not drawn) [(.+-.)-α-aminobutyric acid] + O
Details	mass density, 288.15 K [kg/m3]	mass density, 298.15 K [kg/m3]	mass density, 308.15 K [kg/m3]	mass density, 318.15 K [kg/m3]	speed of sound, 288.15 K [m/s]	speed of sound, 298.15 K [m/s]	speed of sound, 308.15 K [m/s]	speed of sound, 318.15 K [m/s]
m1 = 0.04996	1000.54	998.441	995.405	991.565	1470.8	1500.8	1523.5	1539.8
m1 = 0.1498	1003.36	1001.19	998.105	994.226	1479.5	1508.9	1530.9	1546.7
m1 = 0.2141	1005.15	1002.92	999.815	995.911	1485.2	1513.8	1535.7	1551.1
m1 = 0.4366	1011.15	1008.79	1005.56	1001.57	1504.2	1531.5	1551.8	1566
m1 = 0.6599	1016.91	1014.4	1011.06	1006.99	1522.7	1548.4	1567.4	1580.5
m1 = 0.8834	1022.42	1019.77	1016.34	1012.18	1540.7	1564.9	1582.6	1594.5
m1 = 1.106	1027.68	1024.9	1021.35	1017.13	1558	1580.7	1597.2	1608
m1 = 1.33	1032.73	1029.83	1026.17	1021.87	1574.8	1596.1	1611.3	1621
m1 = 1.552	1037.55	1034.52	1030.77	1026.4	1590.9	1610.8	1624.8	1633.5
m1 = 1.774	1042.19	1039.05	1035.2	1030.74	1606.6	1625.1	1637.8	1645.5
m1 = 1.998	1046.67	1043.4	1039.51	1034.95	1621.7	1638.9	1650.5	1657.1

CCCC(N)C(=O)O (stereo not drawn) [DL-2-aminopentanoic acid] + O
Details	mass density, 288.15 K [kg/m3]	mass density, 298.15 K [kg/m3]	mass density, 308.15 K [kg/m3]	mass density, 318.15 K [kg/m3]	speed of sound, 288.15 K [m/s]	speed of sound, 298.15 K [m/s]	speed of sound, 308.15 K [m/s]	speed of sound, 318.15 K [m/s]
m1 = 0.04497	1000.31	998.222	995.183	991.346	1471.3	1501.2	1523.8	1540
m1 = 0.05999	1000.71	998.611	995.564	991.721	1473	1502.7	1525.1	1541.2
m1 = 0.07998	1001.24	999.126	996.069	992.218	1475.1	1504.6	1526.9	1542.8
m1 = 0.09499	1001.63	999.511	996.447	992.59	1476.7	1506.1	1528.2	1544
m1 = 0.11	1002.03	999.895	996.823	992.961	1478.3	1507.5	1529.6	1545.2
m1 = 0.125	1002.42	1000.28	997.197	993.329	1479.9	1509	1530.9	1546.4
m1 = 0.14	1002.81	1000.66	997.57	993.697	1481.5	1510.4	1532.2	1547.6
m1 = 0.155	1003.2	1001.04	997.943	994.064	1483.1	1511.9	1533.5	1548.8
m1 = 0.17	1003.59	1001.42	998.314	994.429	1484.6	1513.3	1534.8	1550
m1 = 0.185	1003.98	1001.79	998.684	994.793	1486.2	1514.7	1536.2	1551.2
m1 = 0.2	1004.36	1002.17	999.053	995.156	1487.8	1516.1	1537.5	1552.4

CC(N)C(=O)O (stereo not drawn) [DL-2-aminopropanoic acid] + O
Details	mass density, 288.15 K [kg/m3]	mass density, 298.15 K [kg/m3]	mass density, 308.15 K [kg/m3]	mass density, 318.15 K [kg/m3]	speed of sound, 288.15 K [m/s]	speed of sound, 298.15 K [m/s]	speed of sound, 308.15 K [m/s]	speed of sound, 318.15 K [m/s]
m1 = 0.04994	1000.59	998.501	995.455	991.617	1469.9	1500	1522.8	1539.1
m1 = 0.1499	1003.53	1001.37	998.271	994.396	1476.9	1506.5	1528.8	1544.8
m1 = 0.2597	1006.7	1004.46	1001.3	997.395	1484.5	1513.5	1535.4	1551
m1 = 0.4797	1012.86	1010.48	1007.21	1003.23	1499.3	1527.4	1548.3	1563.2
m1 = 0.6994	1018.78	1016.26	1012.89	1008.84	1513.8	1540.8	1560.9	1575
m1 = 0.9199	1024.51	1021.85	1018.39	1014.26	1528	1553.9	1573.2	1586.5
m1 = 1.138	1029.97	1027.2	1023.64	1019.43	1541.7	1566.6	1585	1597.7
m1 = 1.36	1035.33	1032.43	1028.77	1024.51	1555.1	1579.1	1596.7	1608.7
m1 = 1.577	1040.37	1037.36	1033.63	1029.29	1568	1591	1607.8	1619.2
m1 = 1.799	1045.37	1042.26	1038.42	1034.03	1580.7	1602.7	1618.9	1629.5
